Measured values taken from patent US4260760A, “Diaryl-aliphatic-amino-aliphatic-piperazines” (priority 1979, dated 1981).
Counter-ions that a name gives are not always drawn.

Test system: mice
Test: Acute Oral LD50 mice (Table I)
Assay type: in vivo
Text: The low toxicity of these compounds makes them especially attractive for use where contact with skin surfaces or possible ingestion renders the use of irritating or toxic materials inadvisable.
______________________________________

## Cc1ccc(C(C)(C)C)cc1CCCC(CCCc1cc(C(C)(C)C)ccc1C)NCCCNCCCN [1-[1,7-di-(2-methyl-5-t-butylphenyl)-hydrochloride]
  Acute Oral LD50 mice: 1650 mg/kg
